Assay results: patent US20120244226A1, “TREATMENT COMPOSITION AND METHOD” (DEC INTERNATIONAL NZ LIMITED, priority 2009, published 2012)
Entries after “also recorded” stand apart in the source; their conditions may differ.

Key:
[1] = system: interleukin-6 (IL-6) produced by LPS activated neutrophils; test: IL-6 production by LPS activated neutrophils (ELISA); format: cell-based, rat; details: for effect on IL-6, in words / inhibition of IL-6 production: over the concentrations tested; for inhibition of IL-6 production: concentration not given
Procedure: (§1) The anti-inflammatory properties of the cationic fraction, IDP, and the combination of IDP with chondroitin and glucosamine were determined by measuring their ability to inhibit the production of the inflammatory compounds, tumor necrosis factor-α (TNF-α) and interleukin-6 (IL-6) produced by LPS activated neutrophils. […] Neutrophils were isolated from rat blood and incubated in the presence of LPS. LPS is derived from bacterial cell walls and is used to mimic a 'bacterial infection'. […] Two of these cytokine are TNF-α and IL-6. The concentrations of both cytokines produced by neutrophils exposed to LPS and the various test substances are summarised graphically in FIGS. 1 and 2 respectively. […] Aliquots from each set of triplicates were combined, and duplicates assayed for cytokine concentrations. The plate blank was subtracted from each individual data point. A VersaMax 96-well plate reader was used to colorimetrically assess the production of TNF-α and IL-6 as determined by the ELISA, using Rat TNF-α ELISA kit, R&D Systems, Cat # RTA00, and Rat IL-6 ELISA kit, R&D Systems, Cat # […]. The average cytokine concentration, standard deviation and standard error were calculated for each data set (sample and concentration). Preliminary statistical significance was assessed using independent Student t-tests at α≦0.05.

[2] = system: tumor necrosis factor-α (TNF-α) produced by LPS activated neutrophils; test: TNF-α production by LPS activated neutrophils (ELISA); format: cell-based, rat
Procedure: as §1

[3] = 300 μg/ml, relative to LPS only control
[4] = Rattus norvegicus, Neutrophil, 100 μg/ml, relative to LPS only control
[5] = Rattus norvegicus, Neutrophil, 300 μg/ml, relative to LPS only control
[6] = Rattus norvegicus, Neutrophil, 1 μg/ml, relative to LPS only control
[7] = Rattus norvegicus, Neutrophil, 10 μg/ml, relative to LPS only control
[8] = Rattus norvegicus, Neutrophil, 4 μg/ml, relative to LPS only control
[9] = Rattus norvegicus, Neutrophil, 12 μg/ml, relative to LPS only control
[10] = Rattus norvegicus, Neutrophil, read-out: IL-6 % Inhibition
[11] = Rattus norvegicus, Neutrophil, read-out: TNF-α % Inhibition

## CC(=O)Oc1ccccc1C(=O)O [Aspirin, acetylsalicylic acid]
[1]
  dose response on IL-6, in words: characteristic dose response
  effect on IL-6, in words: reducing both TNF-α and IL-6 levels significantly
[1]; 100 μg/ml
  IL-6: 63.2 pg/mL
[1]; 300 μg/ml
  IL-6: 0 pg/mL
[1]; [3]
  IL-6 % Inhibition: completely inhibited
[1]; [4]
  inhibition at 100 µg/mL: 78.7%
[1]; [5]
  inhibition at 300 µg/mL: 100%
[2]
  dose response on TNF-α, in words: characteristic dose response
[2]; 100 μg/ml
  TNF-α: 159.17 pg/mL
[2]; 300 μg/ml
  TNF-α: 99.45 pg/mL
[2]; [3]
  TNF-α % Inhibition: 63.9%
[2]; [4]
  inhibition at 100 µg/mL: 42.2%
[2]; [5]
  inhibition at 300 µg/mL: 64%
[2]; over the concentrations tested
  effect on TNF-α, in words: reducing both TNF-α and IL-6 levels significantly

## O=C(O)Cc1ccccc1Nc1c(Cl)cccc1Cl [Diclofenac]
[1]
  dose response on IL-6, in words: inverse dose response
[1]; 1 μg/ml
  IL-6: 78.39 pg/mL
[1]; 10 μg/ml
  IL-6: 90.55 pg/mL
[1]; 100 μg/ml
  IL-6: 185.71 pg/mL
[1]; [6]
  inhibition at 1 µg/mL: 73.6%
[1]; [7]
  inhibition at 10 µg/mL: 69.5%
[1]; [4]
  inhibition at 100 µg/mL: 37.4%
[1]; listed as Voltaren (Diclofenac)
  inhibition of IL-6 production: 74-38%
[2]
  dose response on TNF-α, in words: inverse dose response
[2]; 1 μg/ml
  TNF-α: 132.01 pg/mL
[2]; 1 μg/ml, relative to LPS only control
  TNF-α % Inhibition: 52.1%
[2]; 10 μg/ml
  TNF-α: 151.97 pg/mL
[2]; 100 μg/ml
  TNF-α: 342.46 pg/mL
  effect on TNF-α, in words: appeared to stimulate TNF-α
[2]; 100 μg/ml, listed as Voltaren (Diclofenac)
  TNF-α: 342 pg/mL
[2]; [6]
  inhibition at 1 µg/mL: 52%
[2]; [7]
  inhibition at 10 µg/mL: 44.8%
[2]; [4]
  inhibition at 100 µg/mL: -24.4%

## COc1cc(/C=C/C(=O)CC(=O)/C=C/c2ccc(O)c(OC)c2)ccc1O [Curcumin, curcumin]
[1]
  dose response on IL-6, in words: no apparent dose effect
  effect on IL-6, in words: close to complete inhibition
  inhibition of IL-6 production: 90%
[1]; 4 μg/ml
  IL-6: 38.65 pg/mL
[1]; 12 μg/ml
  IL-6: 31.14 pg/mL
[1]; [8]
  inhibition at 4 µg/mL: 87%
[1]; [9]
  inhibition at 12 µg/mL: 89.5%
[2]
  dose response on TNF-α, in words: no apparent dose effect
[2]; 4 μg/ml
  TNF-α: 146.71 pg/mL
[2]; 12 μg/ml
  TNF-α: 180.66 pg/mL
[2]; [8]
  inhibition at 4 µg/mL: 46.7%
[2]; [9]
  inhibition at 12 µg/mL: 34.4%
[2]; over the concentrations tested, concentration not given
  inhibition of TNF-α production: approximately 50%

## CCN(CC)CCCC(C)Nc1ccnc2cc(Cl)ccc12 (stereo not shown) [Chloroquine]
[1]; 50 μM
  IL-6: 0 pg/mL
[1]; 100 μM
  IL-6: 0 pg/mL
[1]; [10]
  inhibition at 50 µM: 100%
  inhibition at 100 µM: 100%
[1]
  effect on IL-6, in words: completely inhibiting; also recorded: completely inhibited
[2]; 50 μM
  TNF-α: 0 pg/mL
[2]; 100 μM
  TNF-α: 0 pg/mL
[2]; [11]
  inhibition at 50 µM: 100%
  inhibition at 100 µM: 100%
[2]; over the concentrations tested
  effect on TNF-α, in words: completely inhibiting; also recorded: completely inhibited
